Calls of active or inactive are those of the source.
Assays:
[1] = target: T1, Glycogen synthase kinase-3 (Sus scrofa, UniProt B2LUN4+I6LNT8); experiment: Inhibition of porcine brain GSK-3alpha/beta using YRRAAVPPSPSLSRHSSPHQpSEDEEE as substrate incubated for 30 mins in presence of ATP by scintillation counting method; type: tissue-based
[2] = system: HT-22; experiment: Neuroprotective activity against glutamate-induced cell death in mouse HT-22 cells treated for 24 hrs by MTS assay; type: functional, cell-based; conditions: HT-22, 24 h
[3] = system: U2OS; experiment: Induction of PI3K/mTor-dependent autophagy in human U2OS cells assessed as number of LC3 foci per cell at 10 uM measured after 4 hrs; type: cell-based; conditions: filed as activator
[4] = target: T2, Cannabinoid receptor 1 (Homo sapiens, UniProt P21554); experiment: Antagonist activity at CP-55940-activated CB1 receptor (unknown origin) at 10 uM by beta-arrestin assay relative to control; type: functional; parameters: scale not given: the % may be the effect or the level left
T2 sequence (P21554 whole entry): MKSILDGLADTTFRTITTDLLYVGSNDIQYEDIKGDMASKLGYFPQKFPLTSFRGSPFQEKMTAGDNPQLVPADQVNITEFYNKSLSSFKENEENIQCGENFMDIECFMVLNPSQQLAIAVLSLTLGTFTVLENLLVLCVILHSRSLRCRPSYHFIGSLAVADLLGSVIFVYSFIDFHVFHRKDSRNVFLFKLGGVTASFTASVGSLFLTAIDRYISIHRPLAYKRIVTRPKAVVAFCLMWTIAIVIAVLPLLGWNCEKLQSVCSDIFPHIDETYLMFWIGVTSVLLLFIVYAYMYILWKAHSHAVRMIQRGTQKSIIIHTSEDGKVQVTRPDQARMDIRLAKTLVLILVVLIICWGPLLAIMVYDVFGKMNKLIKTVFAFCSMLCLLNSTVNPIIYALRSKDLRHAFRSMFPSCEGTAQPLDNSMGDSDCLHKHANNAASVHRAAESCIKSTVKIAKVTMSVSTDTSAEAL

[5] = Drug metabolism in human liver microsomes assessed as GSH reduction metabolite at 50 uM incubated for 60 mins in presence of 13C2,15N-GSH by LC-MS/MS analysis; type: ADME, Microsome; conditions: 1 h
[6] = Neurotoxicity against mouse HT-22 cells assessed as cell survival at 20 uM treated for 24 hrs by MTS assay; type: toxicity, cell-based; conditions: ht-22, 24 h
[7] = target: Dual specificity protein kinase CLK4 (Mus musculus, UniProt O35493); experiment: Inhibition of GST-fused mouse recombinant CLK4 expressed in Escherichia coli using GRSRSRSRSRSR peptide as substrate incubated for 30 mins in presence of ATP by scintillation counting method
Sequence of Dual specificity protein kinase CLK4 (O35493 whole entry, the tested form may be a part): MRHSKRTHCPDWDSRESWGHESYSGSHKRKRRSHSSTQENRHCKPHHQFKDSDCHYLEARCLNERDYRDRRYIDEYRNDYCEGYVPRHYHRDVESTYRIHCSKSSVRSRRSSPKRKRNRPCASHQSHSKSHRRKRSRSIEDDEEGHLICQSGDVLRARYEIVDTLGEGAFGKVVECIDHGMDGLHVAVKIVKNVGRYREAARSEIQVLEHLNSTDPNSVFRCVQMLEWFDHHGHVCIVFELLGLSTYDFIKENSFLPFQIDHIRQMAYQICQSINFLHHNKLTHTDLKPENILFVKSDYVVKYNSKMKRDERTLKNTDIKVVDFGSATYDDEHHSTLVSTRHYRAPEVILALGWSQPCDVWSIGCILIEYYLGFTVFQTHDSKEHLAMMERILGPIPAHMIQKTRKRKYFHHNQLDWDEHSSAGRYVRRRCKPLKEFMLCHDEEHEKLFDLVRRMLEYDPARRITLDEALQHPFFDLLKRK

[8] = target: Dual specificity protein kinase CLK1 (Mus musculus, UniProt P22518); experiment: Inhibition of GST-fused mouse recombinant CLK1 expressed in Escherichia coli using GRSRSRSRSRSR peptide as substrate incubated for 30 mins in presence of ATP by scintillation counting method
Sequence of Dual specificity protein kinase CLK1 (P22518 whole entry, the tested form may be a part): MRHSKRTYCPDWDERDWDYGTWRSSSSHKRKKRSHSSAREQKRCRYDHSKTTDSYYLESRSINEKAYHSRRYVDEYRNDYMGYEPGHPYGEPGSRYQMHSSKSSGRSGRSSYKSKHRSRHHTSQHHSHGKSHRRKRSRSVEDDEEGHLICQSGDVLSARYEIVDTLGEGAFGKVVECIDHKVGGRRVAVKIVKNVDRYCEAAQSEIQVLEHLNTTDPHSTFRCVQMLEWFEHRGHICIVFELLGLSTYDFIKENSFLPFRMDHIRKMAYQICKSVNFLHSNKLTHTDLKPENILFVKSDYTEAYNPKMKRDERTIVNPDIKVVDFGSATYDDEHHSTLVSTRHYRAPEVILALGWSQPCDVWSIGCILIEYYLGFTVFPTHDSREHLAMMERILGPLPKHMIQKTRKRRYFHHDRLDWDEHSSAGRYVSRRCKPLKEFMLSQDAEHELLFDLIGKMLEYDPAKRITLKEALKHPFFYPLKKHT

[9] = target: Dual specificity protein kinase CLK2 (Mus musculus, UniProt O35491); experiment: Inhibition of mouse recombinant GST-fused CLK2 expressed in Escherichia coli using GRSRSRSRSRSR peptide as substrate incubated for 30 mins in presence of ATP by scintillation counting method
Sequence of Dual specificity protein kinase CLK2 (O35491 whole entry, the tested form may be a part): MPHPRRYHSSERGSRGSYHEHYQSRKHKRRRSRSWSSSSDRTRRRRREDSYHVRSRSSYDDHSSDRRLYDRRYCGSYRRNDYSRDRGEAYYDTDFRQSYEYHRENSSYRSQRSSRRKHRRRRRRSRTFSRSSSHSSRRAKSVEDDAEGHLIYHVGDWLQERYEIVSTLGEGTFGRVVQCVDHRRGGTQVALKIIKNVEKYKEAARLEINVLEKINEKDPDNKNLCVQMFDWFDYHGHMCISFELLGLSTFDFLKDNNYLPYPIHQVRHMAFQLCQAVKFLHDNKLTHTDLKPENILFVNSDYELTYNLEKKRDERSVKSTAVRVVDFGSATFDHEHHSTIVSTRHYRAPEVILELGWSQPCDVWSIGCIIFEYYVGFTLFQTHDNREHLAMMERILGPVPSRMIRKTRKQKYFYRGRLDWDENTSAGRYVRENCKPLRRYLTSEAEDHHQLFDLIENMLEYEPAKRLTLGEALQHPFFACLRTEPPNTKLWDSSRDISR

[10] = target: Dual specificity tyrosine-phosphorylation-regulated kinase 1A (Homo sapiens, UniProt Q13627); experiment: Inhibition of GST-fused human recombinant DYRK1A expressed in Escherichia coli using GRSRSRSRSRSR peptide as substrate incubated for 30 mins in presence of ATP by scintillation counting method
[11] = target: Dual specificity tyrosine-phosphorylation-regulated kinase 1B (Homo sapiens, UniProt Q9Y463)
Sequence of Dual specificity tyrosine-phosphorylation-regulated kinase 1B (Q9Y463 whole entry, the tested form may be a part): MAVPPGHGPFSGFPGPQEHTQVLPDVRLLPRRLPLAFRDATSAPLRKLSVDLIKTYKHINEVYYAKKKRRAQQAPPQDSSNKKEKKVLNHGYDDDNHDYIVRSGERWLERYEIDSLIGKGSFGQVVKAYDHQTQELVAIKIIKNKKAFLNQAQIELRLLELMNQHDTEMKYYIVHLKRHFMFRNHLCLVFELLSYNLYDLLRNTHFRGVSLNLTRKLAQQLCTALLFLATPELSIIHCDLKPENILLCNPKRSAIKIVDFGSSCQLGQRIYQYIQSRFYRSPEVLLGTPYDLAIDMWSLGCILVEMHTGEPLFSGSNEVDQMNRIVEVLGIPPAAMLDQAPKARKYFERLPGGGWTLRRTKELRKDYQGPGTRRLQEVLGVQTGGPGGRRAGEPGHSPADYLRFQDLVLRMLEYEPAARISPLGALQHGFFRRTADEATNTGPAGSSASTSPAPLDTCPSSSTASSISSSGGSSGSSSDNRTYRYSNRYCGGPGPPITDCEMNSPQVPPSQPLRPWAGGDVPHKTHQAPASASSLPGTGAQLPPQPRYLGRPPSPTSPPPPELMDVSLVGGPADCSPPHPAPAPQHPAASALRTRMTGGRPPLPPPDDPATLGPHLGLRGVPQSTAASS

[12] = target: T3, Dual specificity tyrosine-phosphorylation-regulated kinase 2 (Homo sapiens, UniProt Q92630); experiment: Inhibition of GST-fused human recombinant DYRK2 expressed in Escherichia coli using GRSRSRSRSRSR peptide as substrate incubated for 30 mins in presence of ATP by scintillation counting method
T3 sequence (Q92630 whole entry): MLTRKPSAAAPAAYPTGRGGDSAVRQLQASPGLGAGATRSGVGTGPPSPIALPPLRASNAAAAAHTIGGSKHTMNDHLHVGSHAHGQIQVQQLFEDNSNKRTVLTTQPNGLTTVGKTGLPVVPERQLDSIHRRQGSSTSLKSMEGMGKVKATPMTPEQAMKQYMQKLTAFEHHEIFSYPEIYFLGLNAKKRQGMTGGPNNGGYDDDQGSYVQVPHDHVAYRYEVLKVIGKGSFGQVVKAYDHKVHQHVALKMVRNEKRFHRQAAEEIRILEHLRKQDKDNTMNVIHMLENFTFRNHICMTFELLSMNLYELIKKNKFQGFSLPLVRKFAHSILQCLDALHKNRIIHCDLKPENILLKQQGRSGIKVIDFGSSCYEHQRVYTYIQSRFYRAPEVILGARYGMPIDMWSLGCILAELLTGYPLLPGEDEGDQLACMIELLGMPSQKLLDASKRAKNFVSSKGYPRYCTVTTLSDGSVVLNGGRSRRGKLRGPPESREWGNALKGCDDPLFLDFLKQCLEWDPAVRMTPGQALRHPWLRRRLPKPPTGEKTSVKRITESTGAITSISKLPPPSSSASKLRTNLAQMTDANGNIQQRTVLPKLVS

[13] = target: T4, Dual specificity tyrosine-phosphorylation-regulated kinase 3 (Homo sapiens, UniProt O43781); experiment: Inhibition of GST-fused human recombinant DYRK3 expressed in Escherichia coli using GRSRSRSRSRSR peptide as substrate incubated for 30 mins in presence of ATP by scintillation counting method
T4 sequence (O43781 whole entry): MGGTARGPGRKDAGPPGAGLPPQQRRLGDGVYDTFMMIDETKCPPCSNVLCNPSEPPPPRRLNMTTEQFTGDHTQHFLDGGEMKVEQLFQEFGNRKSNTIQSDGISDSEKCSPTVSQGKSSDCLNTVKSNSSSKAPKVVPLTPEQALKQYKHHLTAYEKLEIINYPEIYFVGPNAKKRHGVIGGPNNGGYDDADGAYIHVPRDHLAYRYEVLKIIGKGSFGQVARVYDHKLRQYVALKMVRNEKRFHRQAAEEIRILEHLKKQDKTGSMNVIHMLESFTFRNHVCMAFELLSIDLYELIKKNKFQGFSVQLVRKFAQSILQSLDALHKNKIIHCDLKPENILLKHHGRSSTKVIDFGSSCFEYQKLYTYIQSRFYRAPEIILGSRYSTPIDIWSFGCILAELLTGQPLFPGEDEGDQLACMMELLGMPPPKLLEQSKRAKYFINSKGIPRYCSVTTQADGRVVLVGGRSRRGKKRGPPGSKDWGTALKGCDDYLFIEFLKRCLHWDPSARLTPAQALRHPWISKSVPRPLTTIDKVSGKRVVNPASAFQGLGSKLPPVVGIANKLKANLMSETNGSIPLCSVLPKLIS

[14] = target: Serine/threonine-protein kinase pim-1 (Homo sapiens, UniProt P11309); experiment: Inhibition of human recombinant Pim1 expressed in Escherichia coli using histone H1 as substrate incubated for 30 mins in presence of ATP by scintillation counting method
Sequence of Serine/threonine-protein kinase pim-1 (P11309 whole entry): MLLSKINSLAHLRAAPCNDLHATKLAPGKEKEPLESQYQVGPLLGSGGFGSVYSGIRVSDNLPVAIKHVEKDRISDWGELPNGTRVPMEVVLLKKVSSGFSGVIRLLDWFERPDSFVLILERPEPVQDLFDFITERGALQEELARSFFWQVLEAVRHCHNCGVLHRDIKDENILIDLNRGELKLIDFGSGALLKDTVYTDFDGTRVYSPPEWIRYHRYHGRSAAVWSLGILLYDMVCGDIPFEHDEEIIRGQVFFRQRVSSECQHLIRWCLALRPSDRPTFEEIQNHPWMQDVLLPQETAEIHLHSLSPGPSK

[15] = target: T2, Cannabinoid receptor 1; experiment: Antagonist activity at CP-55940-activated CB1 receptor (unknown origin) by beta-arrestin assay; type: functional
[16] = Neurotoxicity against mouse HT-22 cells assessed as cell survival at 10 uM treated for 24 hrs by MTS assay; type: toxicity, cell-based; conditions: ht-22, 24 h
[17] = target: Dual specificity protein kinase CLK3 (Mus musculus, UniProt O35492); experiment: Inhibition of GST-fused mouse recombinant CLK3 expressed in Escherichia coli using GRSRSRSRSRSR peptide as substrate incubated for 30 mins in presence of ATP by scintillation counting method
Sequence of Dual specificity protein kinase CLK3 (O35492 whole entry, the tested form may be a part): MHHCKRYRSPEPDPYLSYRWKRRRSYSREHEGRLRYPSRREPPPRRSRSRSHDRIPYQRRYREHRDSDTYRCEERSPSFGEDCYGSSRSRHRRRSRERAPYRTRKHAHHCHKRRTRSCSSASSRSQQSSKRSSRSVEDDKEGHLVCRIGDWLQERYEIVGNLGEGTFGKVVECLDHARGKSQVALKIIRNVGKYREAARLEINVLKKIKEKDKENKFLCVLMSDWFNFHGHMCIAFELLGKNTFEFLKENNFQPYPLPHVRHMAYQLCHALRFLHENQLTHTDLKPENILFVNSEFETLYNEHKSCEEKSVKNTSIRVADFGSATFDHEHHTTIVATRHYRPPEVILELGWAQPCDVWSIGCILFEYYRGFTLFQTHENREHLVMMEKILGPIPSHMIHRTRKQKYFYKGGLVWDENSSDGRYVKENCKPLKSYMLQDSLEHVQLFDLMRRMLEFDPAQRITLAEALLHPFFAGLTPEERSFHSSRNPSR

[18] = target: Casein kinase 2 (Homo sapiens, UniProt P67870+P68400+P19784+Q8NEV1); experiment: Inhibition of human recombinant CK2 using RRRDDDSDDD peptide as substrate incubated for 30 mins in presence of ATP by scintillation counting method; type: protein assay
[19] = Neurotoxicity against mouse HT-22 cells assessed as cell survival treated for 24 hrs by MTS assay; type: toxicity, cell-based
[20] = system: HT-22; experiment: Induction of PI3K/mTor-dependent autophagy in mouse HT-22 cells assessed as number of LC3 foci per cell at 10 uM incubated for 24 hrs using Lamp-1 staining based immunofluorescence microscopy; conditions: filed as activator
[21] = system: HT-22; experiment: Induction of PI3K/mTor-dependent autophagy in mouse HT-22 cells assessed as number of LC3 foci per cell at 10 uM incubated for 24 hrs using Anti-LC3 staining based immunofluorescence microscopy; conditions: filed as activator
[22] = target: T2, Cannabinoid receptor 1; experiment: […] allosteric modulation of CB1 receptor (unknown origin) expressed in HEK293 cell membrane assessed as inhibition of CP-55940-induced [35S]-GTPgammaS binding at 10 uM in presence of GDP by liquid scintillation counting method; type: functional, cell membranes; conditions: DDE = dose-dependent effect
[23] = target: T2, Cannabinoid receptor 1; experiment: Displacement of [3H]-CP55940 from CB1 receptor (unknown origin) expressed in HEK293 cell membrane assessed as dissociation constant at 10 uM by liquid scintillation counting method; type: cell membranes; conditions: filed as modulator
[24] = target: T1, Glycogen synthase kinase-3; experiment: Inhibition of porcine brain GSK-3alpha/beta at 10 uM using YRRAAVPPSPSLSRHSSPHQpSEDEEE as substrate incubated for 30 mins in presence of ATP by scintillation counting method; type: tissue-based
[25] = system: HT-22; experiment: Modulation of CLK1 pre-mRNA splicing in mouse HT-22 cells assessed as inclusion of CLK1 exon 4 by measuring change in threshold cycle at 10 uM measured after 4 hrs by real time PCR analysis; type: cell-based; conditions: filed as modulator
[26] = system: Mus musculus; experiment: Reduction in phosphorylated Tau Thr212 residue in Tg(Dyrk1a) mutant C57BL/6J mouse brain dosed at 20 mg/kg/day, ip for 19 days by western blot analysis; type: functional, organism-based; conditions: time 19.0 day
[27] = system: HT-22; experiment: Modulation of CLK1 pre-mRNA splicing in mouse HT-22 cells assessed as maximal effect of CLK1 exon 4 inclusion measured after 3 hrs by qPCR analysis; type: functional, cell-based
[28] = Reduction in phosphorylated Tau Thr212 residue in wild-type C57BL/6J mouse brain dosed at 20 mg/kg/day, ip for 19 days by western blot analysis; type: toxicity, organism-based; conditions: in vivo, 456 h, time 19 day
[29] = system: HT-22; experiment: Neuroprotective activity against glutamate-induced cell death in mouse HT-22 cells at 10 uM incubated for 24 hrs by phase contrast microscopy; type: functional, cell-based
[30] = system: HT-22; conditions: Mus musculus, filed as modulator, dose 10.0 µM, time 6.0 hrs

Structure (SMILES) | IC50 [1] [µM] | EC50 [2] [nM] | Activity [3] | Activity [4] [%] | Activity [6] | IC50 [7] [nM] | IC50 [8] [nM] | IC50 [9] [µM] | IC50 [10] [nM] | IC50 [11] [nM] | IC50 [12] [nM] | IC50 [13] [nM] | IC50 [14] [µM] | Activity ([4]; filed as antagonist) [%] | IC50 [15] [nM] | IC50 [18] [µM] | Activity [22] | Kb [23] [nM] | other results
COc1cc(/C=C2\N=C(Nc3ccc(N4CCN(C)CC4)cc3)NC2=O)ccc1O | 0.2 | > 20000 | 22 | 14.3 | Non-Toxic | – | – | – | – | – | – | – | – | – | – | – | – | – | Drug metabolism [5]: Metabolite_Notdetected
COc1cc(/C=C2\N=C(Nc3ccc(N4CCCCC4)cc3)NC2=O)ccc1O | > 10 | 1350 | 10.9 | – | – | 1200 | 750 | > 10 | 280 | 410 | 410 | 300 | 6.3 | 84.1 | 297 | – | – | – | Activity [16]: Non-Toxic
COc1cc(/C=C2\N=C(Nc3ccccc3)NC2=O)ccc1O | 1.1 | 1280 | 11.7 | 1.6 | – | 23 | 21 | 0.14 | 70 | 62 | 33 | 120 | 0.18 | – | 4700 | 0.62 | – | – | IC50 [17]: 610 nM; IC50 at 24 h [19]: > 20 µM; Activity [20]: Active; Activity [21]: Active
O=C1NC(Nc2ccccc2)=N/C1=C\c1ccc2c(c1)OCCCO2 | – | 12500 | 5.6 | – | Non-Toxic | > 10000 | > 10000 | – | – | > 10000 | > 10000 | – | > 10 | 89.3 | – | – | Dde | 1200 | –
O=C1NC(Nc2ccc(N3CCCCC3)cc2)=N/C1=C\c1ccc2c(c1)OCO2 | > 10 | 660 | 11.4 | – | Non-Toxic | 1500 | 4200 | > 10 | 700 | 2100 | 230 | > 10000 | – | 81.7 | 91.3 | – | Dde | 3300 | –
O=C1N=C(Nc2ccccc2)S/C1=C\c1ccc2c(c1)OCO2 | – | – | 5.9 | -5.9 | – | 1200 | 800 | > 10 | 10000 | 610 | > 10000 | – | > 10 | – | – | 2.5 | – | – | IC50 [17]: 430 nM; IC50 [24]: 2.5 µM; EC50 at 24 h [19]: > 20 µM; deltaCT [25]: -0.09
O=C1NC(Nc2ccccc2)=N/C1=C\c1ccc2c(c1)OCO2 | 0.6 | 6020 | 11.6 | – | Non-Toxic | – | – | – | – | – | – | – | – | 96.8 | – | 0.51 | Dde | 2200 | Activity [26]: Active; IC50 at 24 h [19]: > 20 µM; Activity ([3]; tested as the 2H-labelled form): 7.3; deltaCT [25]: 8.18; deltaCT ([25]; tested as the 2H-labelled form): 7.71; Activity ([4]; filed as antagonist, tested as the 2H-labelled form): 92.7%; Activity [27]: Active; Activity [28]: Non-Toxic; Activity [29]: Active; Activity [20]: Active; Activity [21]: Active; deltaCT [30]: 8.18

— ChEMBL document CHEMBL5126517, “Structure-Activity Relationship in the Leucettine Family of Kinase Inhibitors” (J Med Chem, 2022)
